Reference: patent US12678509B2, “Inhibitor of apoptosis (IAP) protein antagonists” (Sanford Burnham Prebys Medical Discovery Institute, priority 2019, dated 2026)
Where two headings read alike, the source gives them in different places.

How the values were obtained:
[1] = test system: latently infected cell line Jurkat 2D10; experiment: HIV Jurkat 2D10 cells GFP+ assay (reversal of HIV latency); format: cell-based
How it was run: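 Jurkat 2D10 cells exposed to graded doses of test compounds or IAP antagonists (BV-6, SM-164, Birinapant, LCL-161, GDC-0152, AT-406) for 48 hours. GFP expression quantified by flow cytometry. Induction expressed relative to baseline GFP in untreated cells.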

[2] = test system: SW-1271; experiment: Cell viability (CellTiter-Glo), 6-day compound treatment; format: cell-based, Human
Description: (§1) The compound 18a was tested in 16 different cell lines. For 6-day compound treatment 1700 cells per well were plated in a 384-well plate (Corning #781098) and incubated overnight at 37° C./5% CO2. The following day, compounds in 10-fold dilutions were added to the plates and the plates were incubated for 6 days. Afterwards, 20 μL CellTiter-Glo reagent (Promega, #G7570) was added to each well outside of the incubator and the plates were read for luminescence on a Spark® multimode microplate reader (Tecan). Data was fit in GraphPad Prism 8 to a nonlinear regression curve to determine the IC50 of the compounds.

[3] = test system: PANC1; experiment: as above; format: cell-based, Human
Description: as §1

[4] = as above; format: cell-based, Human; details: human, HFF cells, 6 d, read-out: Cell viability at max. concentration
Description: as §1

[5] = test system: MDA-MB-231; experiment: as above; format: cell-based, Human
Description: as §1

[6] = test system: SHP-77; experiment: as above; format: cell-based, Human
Description: as §1

[7] = test system: MiaPaCa2; experiment: as above; format: cell-based, Human
Description: as §1

[8] = test system: BxPC3; experiment: as above; format: cell-based, Human
Description: as §1

[9] = test system: MDA-MB-468; experiment: as above; format: cell-based, Human
Description: as §1

[10] = test system: BT549; experiment: as above; format: cell-based, Human
Description: as §1

[11] = test system: H69AR; experiment: as above; format: cell-based, Human
Description: as §1

[12] = test system: MALME 3M; experiment: as above; format: cell-based, Human
Description: as §1

[13] = test system: HL-60; experiment: as above; format: cell-based, Human
Description: as §1

[14] = test system: NCI-H510A; experiment: as above; format: cell-based, Human
Description: as §1

[15] = test system: MV411; experiment: as above; format: cell-based, Human
Description: as §1

[16] = test system: HFF; experiment: as above; format: cell-based, Human; details: Homo sapiens, 144 h, read-out: IC50 6 d
Description: as §1

[17] = test system: NB-4; experiment: Cell viability (CellTiter-Glo); format: cell-based, Human; details: for IC50: Homo sapiens
[18] = test system: PBMC or resting CD4+ T cells; experiment: Cytokine release (LEGENDplex Human Inflammation Panel 13-plex); format: cell-based; details: PBMC or resting CD4+ T cells of healthy human donors (FIG. 3)
Description: Compound 18a was also tested for its impact on T cell activation and cytokine release. Peripheral blood mononuclear cells (PBMC) were isolated by Ficoll density gradient centrifugation (Histopaque, Sigma Aldrich) from buffy coats of three healthy human donors (San Diego Blood Bank). Resting CD4^+ T cells were subsequently isolated by negative selection using magnetic beads (Miltenyi Biotec). Cells were treated with compound 18a, or 50 ng/ml Phorbol myristate acetate (PMA) and 1 μM lonomycin, or Dynabeads Human T-Activator CD3/CD28 (ThermoFisher Scientific) at a bead-to-cell ratio of 1:1, or left untreated. Expression of the early and late activation markers CD69 and CD25 on CD4+ T cells was assessed by flow cytometry using a Phycoerythrin-labeled anti-CD69 antibody (BioLegend; Cat #310906) and an Allophycocyanin-labeled anti-CD25 antibody (BioLegend; Cat #302610). Cytokine expression levels in cultures of PBMC or resting CD4+ T cells were analyzed using the LEGENDplex Human Inflammation Panel 13-plex (BioLegend).

[19] = test system: SKOV-3; experiment: Cell viability (CellTiter-Glo), 48 hrs; format: cell-based; details: Homo sapiens, SK-OV-3, 48 h, read-out: SKOV-3 Viability 48 h IC50
[20] = Homo sapiens, 144 h, read-out: IC50 6 d

CN[C@@H](C)C(=O)N[C@H]1CCS[C@H]2CC(C)(C)[C@@H](C(=O)N[C@H]3c4ccccc4C[C@H]3OCC#CC#CCO[C@@H]3Cc4ccccc4[C@@H]3NC(=O)[C@H]3N4C(=O)[C@@H](NC(=O)[C@H](C)NC)CCS[C@H]4CC3(C)C)N2C1=O [Compound 18a, (2S)-1-{[(4S,7S,9aS)-74{(1S,2R)-2-[(6-{[(1S,2R)-1-({[(4S,7S,9aS)-8,8-Dimethyl-4-{[(2S)-2-(methylammonio)propanoyl]amino}-5-oxooctahydropyrrolo[2,1-b][1,3]thiazepin-7-yl]carbonyl}amino)-2,3-dihydro-1H-inden-2-yl]oxy}hexa-2,4-diyn-1-yl)oxy]-2,3-dihydro-1H-inden-1-yl}carbamoyl)-8,8-dimethyl-5-oxooctahydropyrrolo[2,1-b][1,3]thiazepinyl]amino}-N-methyl-1-oxopropan-2-ammonium dichloride]
EC50 ([1]; Homo sapiens, Jurkat, 48 h, read-out: Jurkat 2D10 GFP+ EC50): 1 to 10 nM | efficacy in activating the latently infected cell line ([1]; Jurkat 2D10, 48 hours, compared with BV-6, SM-164, Birinapant, LCL-161, GDC-0152, AT-406 (FIG. 1)): higher efficacy in activating the latently infected cell line than many known compounds | IC50 ([2]; Homo sapiens, SW1271, 144 h, read-out: IC50 6 d): 100 to 1000 nM | Cell viability at max. concentration ([2]; SW-1271, 6 d): I (I<10%) | IC50 ([3]; Homo sapiens, PANC-1, 144 h, read-out: IC50 6 d): < 100000 nM | Cell viability at max. concentration ([3]; PANC1, 6 d): IV (IV<100%) | viability at 6 d [4]: < 100% | IC50 ([5]; Homo sapiens, MDA-MB-231, 144 h, read-out: IC50 6 d): 100 to 1000 nM | Cell viability at max. concentration ([5]; MDA-MB-231, 6 d): I (I<10%) | IC50 ([6]; Homo sapiens, SHP77, 144 h, read-out: IC50 6 d): < 100000 nM | Cell viability at max. concentration ([6]; SHP-77, 6 d): IV (IV<100%) | IC50 ([7]; Homo sapiens, MIA PaCa-2, 144 h, read-out: IC50 6 d): 1000 to 10000 nM | Cell viability at max. concentration ([7]; MiaPaCa2, 6 d): I (I<10%) | Cell viability at max. concentration ([8]; BxPC3, 6 d): III (50%<III<100%) | IC50 ([8]; Homo sapiens, BXPC-3, 144 h, read-out: IC50 6 d): 1000 to 10000 nM | IC50 ([9]; Homo sapiens, MDA-MB-468, 144 h, read-out: IC50 6 d): 100 to 1000 nM | Cell viability at max. concentration ([9]; MDA-MB-468, 6 d): I (I<10%) | Cell viability at max. concentration ([10]; BT549, 6 d): I (I<10%) | IC50 ([10]; Homo sapiens, BT-549, 144 h, read-out: IC50 6 d): 10 to 100 nM | Cell viability at max. concentration ([11]; 6 d): I (I<10%) | IC50 [11, 20]: 1000 to 10000 nM | IC50 ([12]; Homo sapiens, Malme-3M, 144 h, read-out: IC50 6 d): 10 to 100 nM | Cell viability at max. concentration ([12]; MALME 3M, 6 d): I (I<10%) | Cell viability at max. concentration ([13]; HL-60, 6 d): I (I<10%) | IC50 ([13]; Homo sapiens, HL-60, 144 h, read-out: IC50 6 d): 10 to 100 nM | Cell viability at max. concentration ([14]; 6 d): IV (IV<100%) | IC50 [14, 20]: < 100000 nM | IC50 ([15]; Homo sapiens, MV4-11, 144 h, read-out: IC50 6 d): 100 to 1000 nM | Cell viability at max. concentration ([15]; MV411, 6 d): I (I<10%) | IC50 [16]: < 100000 nM | IC50 ([17]; NB-4, 72 h, read-out: NB-4 Viability 72 h IC50): < 10 nM | IC50 ([17]; NB-4, 144 h, read-out: IC50 6 d): < 10 nM | Cell viability at max. concentration ([17]; NB-4, 6 d): I (I<10%) | cytokine release [18]: did not induce | IC50 [19]: < 10 nM
